{
  "source": "patent US4079133A",
  "about": "“Safer method for dissolving gallstones combining hyodeoxycholic acid with chenodeoxycholic acids” (Warren-Teed Laboratories, Inc., priority 1976, dated 1978)",
  "key": {"[1]": {"experiment": "Pharmacological studies employing rats: liver damage and safening effect (summary statements)", "format": "in vivo", "source_text": "The compositions are generally administered in a ratio of CDCA to HDCA in the range of from about 0.7 to about 2.0 and, preferably in the range of from about 0.8 to about 1.5. […] Hog bile generally contains from about 10 to about 50% CDCA and from about 10 to about 50% of HDCA in addition to other bile acids."}, "[2]": {"design": "species or system Long-Evans female rats", "settings": "rat, in vivo", "experimental": "Ten Long-Evans female rats were divided into two groups of five each. The rats were fed Purina® lab chow mixed with CDCA or dried hog bile. The dried hog bile contains approximately 25% CDCA and approximately 40% HDCA and was mixed in the feed at four times the concentration as CDCA so that each group of rats would receive approximately 600 mg. CDCA/kg./day. Following a 2 week treatment, the 10 rats plus five control rats were sacrificed and the blood collected for liver enzyme determinations."}, "[3]": {"settings": "CDCA alone, or HDCA with CDCA relative to CDCA"}},
  "data": [
    {"smiles": "C[C@H](CCC(=O)O)[C@H]1CC[C@H]2[C@@H]3[C@H](O)C[C@@H]4C[C@H](O)CC[C@]4(C)[C@H]3CC[C@]12C", "note": "[CDCA, 3α, 7α-dihydroxy-5β-cholanic acid]", "values": [
      {"measurement": "periportal hepatitis", "setting": "[1]; CDCA alone", "result": "slight to mild periportal hepatitis"},
      {"measurement": "alkaline phosphatase (alk. phos.) in the blood", "setting": "[1]; [3]", "result": "elevations"},
      {"measurement": "serum glutamic pyruvic transaminase (SGPT) in the blood", "setting": "[1]; [3]", "result": "elevations"},
      {"measurement": "serum glutamic-oxaloacetic transaminase (SGOT) in the blood", "setting": "[1]; [3]", "result": "elevations"},
      {"measurement": "nuclear enlargement of the hepatocytes", "setting": "[1]; CDCA alone, slight to mild periportal hepatitis also seen", "result": "nuclear enlargement of the hepatocytes"},
      {"measurement": "Bodyweights, Week 0", "setting": "[2]", "result": 284.6, "unit": "gms"},
      {"measurement": "Bodyweights, Week 1", "setting": "[2]", "result": 256.4, "unit": "gms"},
      {"measurement": "Feed Consumption, Week 0", "setting": "[2]", "result": 18.6, "unit": "gms/da"},
      {"measurement": "Feed Consumption, Week 2", "setting": "[2]", "result": 11.7, "unit": "gms/da"}
    ]}
  ]
}
